Assay results taken from paper PMC5879447, “Discovery of Novel Bovine Viral Diarrhea Inhibitors Using Structure-Based Virtual Screening on the Envelope Protein E2” (Frontiers in Chemistry, 2018).
Read-outs that look alike come from different tables or passages of the source.

Key:
BVDV [1] = test: Reporter-based assay for antiviral activity (cpBVDV/Npro GFP, flow cytometry); format: cell-based, Bovine viral diarrhea virus; settings: read-out: IC50 BVDV
Experimental: Antiviral activity was evaluated in a reporter-based assay using a recombinant virus expressing GFP, cpBVDV/Npro GFP (Pascual et al., [2018]). MDBK cells were seeded onto 24 well plates, infected with cpBVDV/Npro GFP at a multiplicity of infection of 0.1 in the presence of increasing concentrations of compounds. At 48 h post-infection cells were thoroughly washed, lifted with trypsin 0.05% and fixed using 4% paraformaldehyde in PBS. The fluorescence signal was measured using a flow cytometer (CyFlow® Space, Partec) at a detection spectrum of 488 nm. Data were analyzed in the FlowJo 7.6.2 software package. The inhibitory concentrations 50 (IC50s) for the compounds tested in the assay were calculated from curves constructed by plotting the percentage of infected cells versus the concentration of compound as the compound concentration necessary to reduce the number of infected cells by 50% compared to control non-treated cells.
First, we assayed selected compounds for cytotoxicity in cultured cells. […] The remainder of the compounds were evaluated for antiviral activity in a reporter-based assay using a recombinant BVDV virus carrying GFP on its genome to infect MDBK cells (Pascual et al., [2018]). Expression of GFP induced by BVDV infection was measured 2 days after infection using flow cytometry. Inhibition of BVDV infection was assessed by comparing the number of GFP positive cells in non-treated control cells and in cells treated with increasing amounts of compound.

[2] = Cytotoxicity assay (cell viability, crystal violet staining); format: cell-based, Bos taurus; settings: cattle (Bos taurus), MDBK cells, 3 days at 37°C, mean and SD of at least two independent experiments
Experimental: (§1) MDBK cells (Bos taurus kidney, ATCC CCL-22) were purchased from ATCC and grown in Dulbecso's modified Eagle medium (DMEM) supplemented with 10% fetal bovine serum and antibiotics under 5% CO2 at 37°C. For infections, cells were cultivated in DMEM supplemented with 2% Horse serum and antibiotics under 5% CO2 at 37°C.
(§2) Cell viability assays were performed on confluent cell cultures in 96 well plates (~15,000 cells per well). For each compound, cells were treated with serial dilutions of the compound in quadruplicates and incubated at 37°C for 3 days. Then, cell viability was measured using crystal violet staining. Briefly, cells were fixed with 10% formaldehyde, stained with crystal violet solution (20% Ethanol, 0.1% Crystal Violet), and after washing, the absorbance at 595 nm was recorded for each well in a spectrophotometer. Assays were conducted at least in duplicates, and the cytotoxic concentration 50 (CC50) was estimated by a nonlinear regression fitting of five data points as the compound concentration necessary to reduce cell viability by 50% compared to control non-treated cells.

MDBK cells [3] = test: as above; format: cell-based, Bos taurus
Experimental: as §1, §2

BVDV cell entry = tested on: BVDV cell entry; parameters: method as in Pascual et al., 2018; settings: previously shown; ref Pascual et al., 2018; cited from earlier work
BVDV [4] = tested on: BVDV; parameters: method as in Pascual et al. (2018); settings: MDBK cells infected with cpBVDV/Npro GFP; ref Pascual et al. (2018); cited from earlier work
MDBK cells [5] = tested on: MDBK cells; parameters: method as in Pascual et al. (2018); settings: ref Pascual et al. (2018), cited from earlier work
[6] = Bovine viral diarrhea virus isolates and strains, MDBK, 48 h
[7] = MDBK cells (bovine kidney, ATCC CCL-22)

C1=C(c2nc3ccccc3o2)CCN1Cc1ncc[nH]1 [Compound 2]
IC50 (BVDV [1]; [6]): 44.3 ± 10.3 µM | CC50 at 3 days [2, 7]: > 50 µM

(E)-2-(4-(dimethylamino)benzylidene)-N-(4-(trifluoromethyl)phenyl)hydrazinecarbothioamide [Compound 11]
IC50 (BVDV [1]; MDBK cells infected with cpBVDV/Npro GFP, MOI 0.1, 48 h post-infection, mean and SD of at least two independent experiments, NA = assayed but not active): 23.9 ± 7.9 µM | CC50 (MDBK cells [3]): > 50 µM | cytotoxicity at 50 μM (MDBK cells [3]): no cytotoxicity was detected

CCOC(=O)c1ccc2nc(NC(=O)c3cccc(Cl)c3)sc2c1 [Compound 8]
IC50 (BVDV [1]; [6]): 20.2 ± 3.6 µM | cytotoxicity at 50 μM (MDBK cells [3]; MDBK cells, 50 μM): no cytotoxicity was detected | CC50 at 3 days [2, 7]: > 50 µM

CS/C(=N\S(=O)(=O)c1ccc(-n2nc(C(F)(F)F)cc2-c2cccs2)cc1)N1CCCC1 [Compound 9]
CC50 at 3 days [2, 7]: > 50 µM

c1ccc(CN2CCN(c3cccc4[nH]cnc34)CC2)cc1 [Compound 1]
CC50 at 3 days [2, 7]: > 50 µM

COc1ccc(C(=O)Nc2cc(-c3ccccc3)sc2C(N)=O)cc1OC [PTC12]
block of BVDV cell entry (BVDV cell entry): specifically block BVDV cell entry | IC50 (BVDV [4]): 0.3 ± 0.1 µM | cytotoxicity at 50 μM (MDBK cells [5]): no cytotoxicity was detected | CC50 (MDBK cells [5]): 89.5 ± 1.1 µM

N=C(N)Nc1nc2ccccc2[nH]1 [Compound 12, 2-Guanidinobenzimidazole]
IC50 (BVDV [1]; [6]): 44.4 ± 11.5 µM | CC50 at 3 days [2, 7]: > 50 µM

Cc1cc(NC(=O)CCC(=O)O)no1 [Compound 14, 4-((5-methylisoxazol-3-yl)amino)-4-oxobutanoic acid]
CC50 at 3 days [2, 7]: > 50 µM

O=C(NCc1ccc2c(c1)OCO2)Oc1ccccc1 [Compound 7]
CC50 at 3 days [2]: > 50 µM

O=C(OCCO)c1cccc2c1-c1ccccc1C2=O [Compound 13]
CC50 at 3 days [2, 7]: 61.5 ± 1.4 µM

Cc1ccc(CNC(=N)NC(=N)N)cc1 [Compound 17]
CC50 at 3 days [2, 7]: > 50 µM

4-chloro-N-(isoxazol-5-yl)benzamide [Compound 15]
CC50 (MDBK cells [3]): > 50 µM

O=C(Nc1ccc(OC(F)(F)F)cc1)c1ccco1 [Compound 16, N-(4-(trifluoromethoxy)phenyl)furan-2-carboxamide]
CC50 at 3 days [2, 7]: 49.8 ± 1.5 µM

OCCCc1nc2ccccc2[nH]1 [BI03]
block of BVDV cell entry (BVDV cell entry): specifically block BVDV cell entry | IC50 (BVDV [4]): 17.6 ± 6.4 µM | cytotoxicity at 50 μM (MDBK cells [5]): no cytotoxicity was detected | CC50 (MDBK cells [5]): > 200 µM

NNC(=O)c1ccccc1NC(=O)c1ccccc1 [Compound 3]
CC50 at 3 days [2]: > 50 µM

COc1ccccc1NC(=O)Cc1nnc(SCC(=O)Nc2cc(Cl)ccc2C)n1C [Compound 10]
CC50 at 3 days [2, 7]: > 50 µM

O=C(NNC(=O)c1cc2cc(OC(F)(F)F)ccc2[nH]1)c1cccc(C(F)(F)F)c1 [Compound 6]
cytotoxicity in cultured cells (MDBK cells [3]; MDBK cells, compound discarded from further analysis): high toxicity | CC50 at 3 days [2, 7]: 7.2 ± 1.3 µM

C[C@@H](Sc1nnc(-c2cccnc2)n1N)C(=O)Nc1cccc(C(F)(F)F)c1 [Compound 4]
IC50 (BVDV [1]; [6]): 30.1 ± 2.9 µM | cytotoxicity at 50 μM (MDBK cells [3]; MDBK cells, 50 μM): no cytotoxicity was detected | CC50 at 3 days [2, 7]: > 50 µM

Cc1cccc(Cl)c1NC(=N)NC(=N)N [Compound 5]
CC50 at 3 days [2, 7]: > 50 µM
